Experimental findings from patent US20070292440A1, “CD154 blockade therapy for pancreatic islet tissue transplantation” (priority 1997, published 2007) are described below.

Values joined by “and” are separate entries in the source; they are usually repeats but may differ in a detail not shown here. Identical values can stand only once.

Data set [1] concerns islet allografts in pancreatectomized baboons. Put plainly: Baboon model of islet cell transplantation (ICT) for pancreatectomy-induced diabetes. In kind it is in vivo, Baboon (Papio hamadryas). As for the experimental part: Identification of donor-recipient pairs. Peripheral blood mononuclear cells (PBMC) from 10 potential recipients (Baboons, Papio hamadryas, male and female, 1-2 years of age, approximately 4.0 kg) from the Mannheimer facility (Homestead, Fla.) were used as responders against PBMC from 11 male donors (over 2 years of age, purchased from the Southwest Foundation in Texas) in a one way mixed leukocyte culture (MLC). The baboon MLC was performed via standardized methods for human MLC. […] The donors were of a sufficient size that enough islets and bone marrow were obtained from 1 donor to allow for transplantation into 2 recipients. […] An attempt was made to choose two recipients with similar MLC reactivity to the designated donor, and donor-recipient pairs with varying degrees of alloreactivity were chosen.
Islet/bone marrow preparation and administration.
For studies on enhancing tolerance, vertebral body was harvested from the pancreas donor and processed to obtain donor bone marrow cells (DBMC) generally according to routine modifications of methods for processing of human vertebral bodies. For recipients of donor bone marrow, infusions were administered on days 5 and II post ICT. A total dose of 10^9 nucleated cells per kg recipient body weight was given.
Pancreatectomy and ICT. […] The number of IEQ was determined immediately prior to transplantation. Total pancreatectomy was performed according to established surgical techniques. After completion of the total pancreatectomy, a 20G angiocatheter was inserted into one of the mesenteric vessel tributaries of the portal vein, and ICT was accomplished by gravity infusion of the islet preparation over a 10 min period.
Immunosuppression and post-operative care. FK506 (tacrolimus) was chosen as the immunosuppressant, as this drug is currently utilized in human ICT. FK506 administration commenced at 5 days prior to ICT. A dosage of 0.1 mg/kg/day, i.m. was administered to recipient baboons. Drug levels were monitored daily and dosage was adjusted to maintain trough levels of approximately 15 ng/ml.
For the first post-operative day (study day 1, or POD 1), the baboons were given intravenous fluids. The animals were subsequently fed a diet containing 60 g of carbohydrate per day, with 45 g of monkey biscuits (supplemented with viokase) and 15 g of fruit.
Monitoring. Fasting and post-prandial blood glucose (FG and PPG, respectively) were monitored via heel stick and blood testing with a Glucometer Elite, and at least once weekly, a blood sample was drawn to obtain plasma for testing of FG levels with a Beckman glucose analyzer. In general a blood sample was also obtained to confirm unusually high readings. […] At approximately 3 months post-transplant, testing was decreased to every other week. The blood samples were used for phenotyping of peripheral blood to assess leukocyte subsets and determination of CBC and chemistries, 5c8 and anti-5c8 levels, insulin and C-peptide levels, and chimerism. Blood was drawn periodically for retesting of MLC reactivity to donor and 3rd party antigens.

The test system of data set [2] is islet allograft function (glucose metabolism) in baboons. Put plainly: Intravenous glucose tolerance testing (IVGTT) of baboon islet allograft recipients. The class given is in vivo, Baboon (Papio hamadryas). As for the experimental part: Intravenous Glucose Tolerance Testing (IVGTT). It has been previously shown that in vivo islet-cell function tests give an accurate reflection of changes in β cell mass. (McCulloch et al., Diabetes 40: 673-679, 1991). Intravenous glucose tolerance tests were carried out after a 16- to 18-h overnight fast, as previously described (Lehmann et al., J. Med. Primatol. 26: 312-321, 1997). In brief, blood samples were collected at −10, −5, and 0 min. Then 0.5 g glucose per kg of body weight in a 50% glucose solution was injected over 20 seconds into the saphenous vein. 1.5 ml samples were collected from the contralateral femoral artery at 1, 3, 5, 7, 10, 15, 20, 25, 30 min post injection. Thus, a total of 12 blood samples were withdrawn over a […] period. The samples were drawn into glass tubes containing 0.05 ml 15% fluid EDTA and 0.2 ml trasylol (500 K.I.U. aprotinin/ml blood), placed on ice, and centrifuged within 10 minn. Plasma was then frozen at −80° C. and assayed later for glucose, immunoreactive insulin, and glucagon.
Statistical analysis and calculations. Results are set forth as means ±SEM. The glucose disappearance constant (Kg) was calculated from the IVGTT as the slope of the decline of the loge (In) plasma glucose between 10 and 30 min. after the glucose injection, multiplied by 100. The acute insulin response to glucose (AIRG) was calculated as the incremental area under the insulin curve (AUC) between 1-10 min after the IV glucose injection. The incremental responses (AUCGlucose, AUCInsulin) were calculated by means of the trapezoidal rule with subtraction of the basal values from 1 to 30 minutes, Data were analyzed with Statistica for Windows software (Version 5.0, 1997. Statsoft Inc., Tulsa, Okla., USA).

Data set [3] relates to islet allografts in pancreatectomized diabetic rhesus monkeys. Put plainly: Rhesus monkey model of ICT for pancreatectomy-induced diabetes. The class given is in vivo. Particulars: induction days -1, 0, 3, 10 + monthly maintenance, monotherapy. The protocol:
Unless specified, all procedures were generally as described above for the baboon model studies.
Animal procedures. SPF rhesus monkeys, 2-7 years of age, are readily available from COVANCE (Alice, Tex.) or the Mannheimer Foundation, Inc. (Homestead, Fla.) or similar vendors. Upon admission, all monkeys are examined to determine their general health, physical condition, and psychological status. All surgical procedures are carried under aseptic conditions. Animals are fasted for 12-18 hours before surgery and will be pre-anesthetized with i.m. ketamine (10 mg/kg) and atropine (0.04 mg/kg). Once the animal is sedated, an endotracheal tube and an i.v. catheter are promptly installed. The endotracheal tube is used to protect the airway and provide easy access for emergency drugs. The animals are anesthetized with an isoflurane and oxygen combination. Normal saline solution for injection is infused through the catheter throughout the entire ICT procedure at a rate of 10 ml/kg/hour.
A midline incision is made to gain access to the abdominal organs. For both donor and recipient animals, a total pancreatectomy is performed with preservation of the duodenum. […]
Monitoring. […] Fasting blood glucose (FG) levels are determined by using a lancet to prick the heel, to obtain a small drop of blood for placement on a glucometer strip. […]

For the compound `C=CC[C@@H]1/C=C(\C)C[C@H](C)C[C@H](OC)[C@H]2O[C@@](O)(C(=O)C(=O)N3CCCC[C@H]3C(=O)O[C@H](/C(C)=C/[C@@H]3CC[C@@H](O)[C@H](OC)C3)[C@H](C)[C@@H](O)CC1=O)[C@H](C)C[C@@H]2OC` [FK506, tacrolimus, reference compound], the “day of islet allograft rejection” value was found to be 10 day in data set [1] (Baboon, FK506 alone); 10 day in data set [1] (Baboon, FK506 in combination with stem cell selected marrow); 8 day in data set [1] (Baboon, FK506 in combination with whole bone marrow).
With “Anti-CD154: humanized MAb having the antigen-specific binding properties of MAb 5c8; CD154 (CD40L) blocking agent”, the “adverse effect on insulin secretion or overall insulin sensitivity” value in data set [2] (baboon studies) is listed as “no adverse effect”. In data set [2] (baboons on maintenance therapy, follow-up 16 weeks), the “FPIS (first phase insulin secretion) after islet transplantation” value is on record as “well preserved”. The “Kg values (glucose disappearance constant) in repeated IVGTT” value is given as “decline” in data set [2] (baboons treated at the time of rejection, after 8 postoperative weeks) and “Stable values” in data set [2] (baboons treated with maintenance doses). Further, the “islet allograft survival versus control or FK506 treated animals” value in data set [1] (4 out of 5 baboons) is given as “extended islet allograft survival”. In data set [1] (Baboon, Induction + Anti-Rejection regimen, animal received a reduced dose of 5c8), the “Duration (in PODs) of Insulin Independence” value is given as 8 PODs. The “POD until which graft was maintained after treatment for rejection” value in data set [1] (Baboon, induction 20 mg/kg days -1, 3, 10 + monthly maintenance from POD 28, bone marrow infusions PODs 5 and 11, listed as 5C8) is 162 POD and 124 POD. The “graft survival of functioning islet allografts” value in data set [1] (Baboon, other animals in the study, range of survivals, listed as hu5c8) is > 125 days and > 220 days. Further, in data set [3], the “islet allograft function and rejection episodes” value is reported as “functional islet allografts are maintained without the occurrence of rejection episodes”.
